System: TEAD1
Assay: MCF-7 TEAD1-luciferase reporter assay (MCF7-TEAD-Luc)
Assay type: cell-based
Details: MCF7 cells, overnight; for IC50: Homo sapiens; for TEAD1-Luc MCF7: Max Inhibition: % of DMSO-treated control
Procedure: The ability of compounds to inhibit TEAD-dependent transcription was assessed in the MCF7-TEAD-Luc reporter assay (BPS #60618). Cells were seeded at 10,000 cells in 200 μL per well into white wall, clear bottom 96-well plates (Corning #3610) and incubated at 37° C. for 24 hours, then treated with serial diluted compounds overnight, and luciferase signal was measured using the ONE-Step Luciferase Assay System (BPS #60690) using an EnSight Multimode plate reader (PerkinElmer, model #MLDHH34000000, integration time 100 ms) with Kaleido 3.0. software. For data analysis, dose-dependent curves were plotted as “% inhibition” (% of DMSO-treated control wells), and were fitted by four-parametric model in GraphPad Prism to obtain IC50 values.

Row | SMILES | IC50 [nM] | TEAD1-Luc MCF7: Max Inhibition
1 | C=CC(=O)N1CC[C@](O)(/C=C/c2ccc(C(F)(F)F)cc2)C1 (single isomer, unassigned) [Example 27, (S*,E)-1-(3-hydroxy-3-(4-(trifluoromethyl)styryl)pyrrolidin-1-yl)prop-2-en-1-one] | 100 to 500 | A (A ≥ 75%)
2 | C=CC(=O)N1CC[C@@](C)(/C=C/c2ccc(C(F)(F)F)cc2)C1 (single isomer, unassigned) [Example 29, 1-[(3S*)-3-methyl-3-{2-[4-(trifluoromethyl)phenyl]ethenyl}pyrrolidin-1-yl]prop-2-en-1-one] | 10 to 100 | A (A ≥ 75%)
3 | C=CC(=O)N1CC[C@H](/C=C/c2cccc(C(F)(F)F)c2)C1 (single isomer, unassigned) [Example 43, (R*,E)-1-(3-(3-(trifluoromethyl)styryl)pyrrolidin-1-yl)prop-2-en-1-one] | 100 to 500 | B (75% > B ≥ 50%)
4 | C=CC(=O)N1CC[C@H](C#Cc2cccc(C(F)(F)F)c2)C1 (single isomer, unassigned) [Example 56, (R*)-1-(3-((3-(trifluoromethyl)phenyl)ethynyl)pyrrolidin-1-yl)prop-2-en-1-one] | 10 to 100 | A (A ≥ 75%)
5 | C=CC(=O)N1CC[C@](O)(C#Cc2ccc(C(F)(F)F)cc2)C1 (single isomer, unassigned) [Example 64, (S*)-1-(3-hydroxy-3-((4-(trifluoromethyl)phenyl)ethynyl)pyrrolidin-1-yl)prop-2-en-1-one] | 10 to 100 | A (A ≥ 75%)
6 | C=C(F)C(=O)N1CC[C@@H](/C=C/c2ccc(C(F)(F)F)cc2)C1 (single isomer, unassigned) [Example 68] | 100 to 500 | B (75% > B ≥ 50%)
7 | C=CC(=O)N1C[C@H](Nc2ncccn2)[C@@H](/C=C/c2ccc(C(F)(F)F)cc2)C1 (single isomer, unassigned) [Example 84] | 10 to 100 | A (A ≥ 75%)
8 | C=CC(=O)N1CCC(/C=C\Cc2ccc(C(F)(F)F)cc2)C1 (single isomer, unassigned) [Example 89, (Z)-1-(3-(3-(4-(trifluoromethyl)phenyl)prop-1-en-1-yl)pyrrolidin-1-yl)prop-2-en-1-one] | 10 to 100 | A (A ≥ 75%)
9 | C=CC(=O)N1CCC(/C=C\C(C)(C)c2ccc(C(F)(F)F)cc2)C1 (single isomer, unassigned) [Example 91, (Z)-1-(3-(3-methyl-3-(4-(trifluoromethyl)phenyl)but-1-en-1-yl)pyrrolidin-1-yl)prop-2-en-1-one] | > 500 | B (75% > B ≥ 50%)
10 | C=CC(=O)N1CCC(/C=C/C(C)(C)c2ccc(C(F)(F)F)cc2)C1 (single isomer, unassigned) [Example 92, (E)-1-(3-(3-methyl-3-(4-(trifluoromethyl)phenyl)but-1-en-1-yl)pyrrolidin-1-yl)prop-2-en-1-one] | > 500 | B (75% > B ≥ 50%)
11 | C=CC(=O)N1CC[C@@H](/C=C/Cc2ccc(C(F)(F)F)cc2)C1 (single isomer, unassigned) [Example 93] | 10 to 100 | B (75% > B ≥ 50%)
12 | C=CC(=O)N1CCC2(C=C(c3ccc(C(F)(F)F)cc3)CO2)C1 (single isomer, unassigned) [Example 97, 1-(3-(4-(trifluoromethyl)phenyl)-1-oxa-7-azaspiro[4.4]non-3-en-7-yl)prop-2-en-1-one] | 100 to 500 | C (50% > C ≥ 2%)
13 | C=CC(=O)N1CC[C@H]([C@@H](O)/C=C/c2ccc(C(F)(F)F)cc2)C1 (single isomer, unassigned) [Example 103] | 100 to 500 | B (75% > B ≥ 50%)
14 | C=CC(=O)N1CC[C@H]([C@H](O)/C=C/c2ccc(C(F)(F)F)cc2)C1 (single isomer, unassigned) [Example 104] | 100 to 500 | B (75% > B ≥ 50%)

Continued, in another order:

Row | IC50 [nM] | SMILES | TEAD1-Luc MCF7: Max Inhibition
15 | 10 to 100 | C=CC(=O)N1CC[C@@](O)(/C=C/c2ccc(C(F)(F)F)cc2)C1 (single isomer, unassigned) [Example 28, (R*,E)-1-(3-hydroxy-3-(4-(trifluoromethyl)styryl)pyrrolidin-1-yl)prop-2-en-1-one] | B (75% > B ≥ 50%)
16 | 10 to 100 | C=CC(=O)N1CC[C@](C)(/C=C/c2ccc(C(F)(F)F)cc2)C1 (single isomer, unassigned) [Example 30, 1-[(3R*)-3-methyl-3-{2-[4-(trifluoromethyl)phenyl]ethenyl}pyrrolidin-1-yl]prop-2-en-1-one] | A (A ≥ 75%)
17 | 100 to 500 | C=CC(=O)N1CC(/C=C/c2ccc(C(F)(F)F)cc2)C(C)(C)C1 (single isomer, unassigned) [Example 33] | A (A ≥ 75%)
18 | 10 to 100 | C=CC(=O)N1CC[C@@H](/C=C\c2cccc(C(F)(F)F)c2)C1 (single isomer, unassigned) [Example 41, (S*,Z)-1-(3-(3-(trifluoromethyl)styryl)pyrrolidin-1-yl)prop-2-en-1-one] | A (A ≥ 75%)
19 | 100 to 500 | C=CC(=O)N1CC[C@H](/C=C\c2cccc(C(F)(F)F)c2)C1 (single isomer, unassigned) [Example 42, (R*,Z)-1-(3-(3-(trifluoromethyl)styryl)pyrrolidin-1-yl)prop-2-en-1-one] | A (A ≥ 75%)
20 | 10 to 100 | C=CC(=O)N1CC[C@@H](/C=C/c2cccc(C(F)(F)F)c2)C1 (single isomer, unassigned) [Example 44, (S*,E)-1-(3-(3-(trifluoromethyl)styryl)pyrrolidin-1-yl)prop-2-en-1-one] | A (A ≥ 75%)
21 | 10 to 100 | C=CC(=O)N1CC[C@@H](C#Cc2cccc(C(F)(F)F)c2)C1 (single isomer, unassigned) [Example 57, (S*)-1-(3-((3-(trifluoromethyl)phenyl)ethynyl)pyrrolidin-1-yl)prop-2-en-1-one] | A (A ≥ 75%)
22 | ≤ 10 | C=CC(=O)N1CC[C@@](C#Cc2ccc(C(F)(F)F)cc2)(OC)C1 (single isomer, unassigned) [Example 58, (S*)-1-(3-methoxy-3-((4-(trifluoromethyl)phenyl)ethynyl)pyrrolidin-1-yl)prop-2-en-1-one] | B (75% > B ≥ 50%)
23 | 10 to 100 | C=CC(=O)N1CC[C@](F)(C#Cc2ccc(C(F)(F)F)cc2)C1 (single isomer, unassigned) [Example 62, (S*)-1-(3-fluoro-3-((4-(trifluoromethyl)phenyl)ethynyl)pyrrolidin-1-yl)prop-2-en-1-one] | B (75% > B ≥ 50%)
24 | 10 to 100 | C=CC(=O)N1CC[C@@](F)(C#Cc2ccc(C(F)(F)F)cc2)C1 (single isomer, unassigned) [Example 63, (R*)-1-(3-fluoro-3-((4-(trifluoromethyl)phenyl)ethynyl)pyrrolidin-1-yl)prop-2-en-1-one] | A (A ≥ 75%)
25 | 100 to 500 | C=CC(=O)N1CC[C@@](O)(C#Cc2ccc(C(F)(F)F)cc2)C1 (single isomer, unassigned) [Example 65, (R*)-1-(3-hydroxy-3-((4-(trifluoromethyl)phenyl)ethynyl)pyrrolidin-1-yl)prop-2-en-1-one] | A (A ≥ 75%)
26 | 10 to 100 | C=CC(=O)N1CC[C@H](C#Cc2ccc(C(F)(F)F)cc2)C1 (single isomer, unassigned) [Example 66, (R*)-1-(3-((4-(trifluoromethyl)phenyl)ethynyl)pyrrolidin-1-yl)prop-2-en-1-one] | A (A ≥ 75%)
27 | 100 to 500 | C=C(F)C(=O)N1CC[C@H](/C=C/c2ccc(C(F)(F)F)cc2)C1 (single isomer, unassigned) [Example 69] | B (75% > B ≥ 50%)
28 | ≤ 10 | C=CC(=O)N1CCC(/C=C/Cc2ccc(C(F)(F)F)cc2)C1 (single isomer, unassigned) [Example 88, (E)-1-(3-(3-(4-(trifluoromethyl)phenyl)prop-1-en-1-yl)pyrrolidin-1-yl)prop-2-en-1-one] | B (75% > B ≥ 50%)
29 | 10 to 100 | C=CC(=O)N1CC[C@H](/C=C/Cc2ccc(C(F)(F)F)cc2)C1 (single isomer, unassigned) [Example 94] | B (75% > B ≥ 50%)
30 | 100 to 500 | C=CC(=O)N1CCC2(C=C(c3ccc(C(F)(F)F)cc3)CC2)C1 (single isomer, unassigned) [Example 95, 1-(7-(4-(trifluoromethyl)phenyl)-2-azaspiro[4.4]non-6-en-2-yl)prop-2-en-1-one] | B (75% > B ≥ 50%)
31 | 10 to 100 | C=CC(=O)N1CCC2(CC=C(c3ccc(C(F)(F)F)cc3)C2)C1 (single isomer, unassigned) [Example 96, 1-(7-(4-(trifluoromethyl)phenyl)-2-azaspiro[4.4]non-7-en-2-yl) prop-2-en-1-one] | B (75% > B ≥ 50%)
32 | > 500 | C=CC(=O)N1CCC2(CC(c3ccc(C(F)(F)F)cc3)=CO2)C1 (single isomer, unassigned) [Example 98, 1-(3-(4-(trifluoromethyl)phenyl)-1-oxa-7-azaspiro[4.4]non-2-en-7-yl)prop-2-en-1-one] | C (50% > C ≥ 2%)

Reference: patent US20260347319A1, “YAP/TAZ-TEAD ONCOPROTEINS INHIBITORS” (BridGene Biosciences, Inc., priority 2022, published 2026)
